Like-named read-outs stand apart in the source and are kept apart here.
Legend:
[1] = target: T1, human recombinant ARG2 (Homo sapiens, UniProt P78540); assay: ARG2 enzymatic inhibition assay (thioarginine substrate, UV absorbance 412 nm); format: biochemical
T1 sequence (P78540 23-354): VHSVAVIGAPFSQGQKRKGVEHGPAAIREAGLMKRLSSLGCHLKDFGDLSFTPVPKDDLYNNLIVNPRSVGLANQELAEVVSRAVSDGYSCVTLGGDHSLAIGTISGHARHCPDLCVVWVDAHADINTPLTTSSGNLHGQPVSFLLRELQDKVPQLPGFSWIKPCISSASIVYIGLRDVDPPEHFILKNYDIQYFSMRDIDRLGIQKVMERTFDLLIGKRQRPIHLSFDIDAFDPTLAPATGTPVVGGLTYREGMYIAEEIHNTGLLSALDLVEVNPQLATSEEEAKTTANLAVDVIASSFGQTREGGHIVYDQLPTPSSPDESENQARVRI
Method: (§1) Assay conditions: The assay was performed using human recombinant ARG1 or ARG2 as enzymes and thioarginine as substrate. The UV absorbance at 412 nm was correlated with the amount of reaction product of ARG1/ARG2. […] 5 μl of 20× sample solutions were added to 90 μl of substrate, and reactions were started by the addition of 5 μl of 20× ARG1/ARG2 solutions. For the negative control (Blank), 5 μl of the assay buffer was added instead of the ARG1/ARG2. […] All reactions were conducted at room temperature and incubated for 30 minutes, ensuring that all wells, containing either samples or controls, contained 0.7% (v/v) EtOH final concentration to discard any solvent effect. UV absorbance readings were done at times 0 and 30 minutes to get net values. Absorbance was measured using a Tecan Infinite M1000 microplate reader.
(§2) Data Analysis: Experiment was performed in duplicate at each concentration. The data were analyzed using the software GraphPad Prism. In the absence of the compound, the net absorbance (At) in each data set was defined as 100% activity. In the absence of ARG1/ARG2, the net absorbance (Ab) in each data set was defined as 0% activity. The percent activity in the presence of each compound was calculated according to the following equation: % activity=[(A−Ab)/(At−Ab)]×100, where A=the absorbance in the presence of the compound.

[2] = target: T2, human recombinant ARG1 (Homo sapiens, UniProt P05089); assay: ARG1 enzymatic inhibition assay (thioarginine substrate, UV absorbance 412 nm); format: biochemical
T2 sequence (P05089 1-322): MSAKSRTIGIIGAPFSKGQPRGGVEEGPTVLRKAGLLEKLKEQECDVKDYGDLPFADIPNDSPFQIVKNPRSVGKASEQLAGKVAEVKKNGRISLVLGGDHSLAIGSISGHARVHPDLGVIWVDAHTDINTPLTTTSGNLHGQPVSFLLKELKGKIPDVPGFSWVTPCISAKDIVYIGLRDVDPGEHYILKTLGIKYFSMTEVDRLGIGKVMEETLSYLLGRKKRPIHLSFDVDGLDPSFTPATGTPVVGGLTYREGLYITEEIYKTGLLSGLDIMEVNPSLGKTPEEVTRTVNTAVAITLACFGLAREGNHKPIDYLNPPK
Method: as §1, §2

[3] = target: T3, recombinant human CD47 (hCD47) with human SIRP-α (Homo sapiens, UniProt Q08722); assay: CD47/SIRP-α in vitro binding assay
T3 construct: purchased 71177 (hCD47, Fc fusion); 71138 (hSIRP-α, Biotin-labeled)
T3 sequence (Q08722 19-141 limits assumed): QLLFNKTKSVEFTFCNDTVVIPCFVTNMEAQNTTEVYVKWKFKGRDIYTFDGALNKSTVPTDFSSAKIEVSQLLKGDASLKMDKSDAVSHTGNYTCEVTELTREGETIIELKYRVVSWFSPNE
Method: Assay Conditions: CD47 was coated using 50 μL at 2 ng/μL at 4° C. overnight. After wash and block steps the test compounds were added to CD47-coated plate followed by addition of SIRP-α-biotin. Reaction was incubated for 2 h at room temperature. Binding was detected using HRP-conjugated Streptavidin.

[4] = target: T4, SIRT1 (Homo sapiens, UniProt Q96EB6); assay: SIRT1 fluorogenic HDAC substrate activity assay; format: biochemical
T4 construct: purchased 50012
T4 sequence (Q96EB6 1-747): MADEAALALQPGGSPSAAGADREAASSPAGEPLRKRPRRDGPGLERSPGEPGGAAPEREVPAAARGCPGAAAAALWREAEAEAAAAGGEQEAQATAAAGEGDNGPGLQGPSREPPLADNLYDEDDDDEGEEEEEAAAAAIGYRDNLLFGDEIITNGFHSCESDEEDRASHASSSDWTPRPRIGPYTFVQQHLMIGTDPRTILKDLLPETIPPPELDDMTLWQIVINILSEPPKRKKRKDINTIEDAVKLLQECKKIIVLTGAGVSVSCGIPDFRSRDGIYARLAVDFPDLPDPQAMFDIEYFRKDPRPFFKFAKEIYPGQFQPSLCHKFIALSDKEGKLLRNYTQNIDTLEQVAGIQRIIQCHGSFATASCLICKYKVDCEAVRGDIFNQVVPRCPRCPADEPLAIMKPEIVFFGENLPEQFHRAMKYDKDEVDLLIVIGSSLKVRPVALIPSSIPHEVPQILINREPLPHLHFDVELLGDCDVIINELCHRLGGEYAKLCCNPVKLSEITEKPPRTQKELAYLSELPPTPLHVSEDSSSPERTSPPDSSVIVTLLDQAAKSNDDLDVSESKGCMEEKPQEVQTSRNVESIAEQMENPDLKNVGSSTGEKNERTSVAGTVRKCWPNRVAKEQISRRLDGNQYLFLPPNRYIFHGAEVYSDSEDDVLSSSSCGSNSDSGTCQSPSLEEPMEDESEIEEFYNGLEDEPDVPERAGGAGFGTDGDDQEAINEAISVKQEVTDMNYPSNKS
Method: Assay Conditions: The sample was dissolved in 70% EtOH. The serial dilution of the compound was first performed in 70% EtOH with the highest concentration at 1%.
The enzymatic reactions for the SIRT1 enzyme were conducted in duplicate at 37° C. for 30 minutes in a 50 μl mixture containing SIRT assay buffer, 5 μg BSA, an HDAC substrate (see 2.3.1), a SIRT enzyme, and a test compound. After enzymatic reactions, 50 μl of 2× SIRT Developer was added to each well for the SIRT enzymes and the plate was incubated at room temperature for an additional 15 minutes. Fluorescence intensity was measured at an excitation of 360 nm and an emission of 460 nm using a Tecan Infinite M1000 microplate reader.
Data Analysis: SIRT activity assays were performed in duplicates at each concentration. […] In the absence of the compound, the fluorescent intensity (Ft) in each data set was defined as 100% activity. In the absence of SIRT, the fluorescent intensity (Fb) in each data set was defined as 0% activity. The percent activity in the presence of each compound was calculated according to the following equation: % activity=(F−Fb)/(Ft−Fb), where F=the fluorescent intensity in the presence of the compound.

[5] = target: T5, recombinant human IDO2 (Homo sapiens, UniProt Q6ZQW0); assay: IDO2 UV absorbance assay (L-tryptophan, 321 nm); format: biochemical; details: for Absorbance (net) Repeat 1 / Absorbance (net) Repeat 2: Table 46
T5 construct: purchased 71194
T5 sequence (Q6ZQW0 1-407): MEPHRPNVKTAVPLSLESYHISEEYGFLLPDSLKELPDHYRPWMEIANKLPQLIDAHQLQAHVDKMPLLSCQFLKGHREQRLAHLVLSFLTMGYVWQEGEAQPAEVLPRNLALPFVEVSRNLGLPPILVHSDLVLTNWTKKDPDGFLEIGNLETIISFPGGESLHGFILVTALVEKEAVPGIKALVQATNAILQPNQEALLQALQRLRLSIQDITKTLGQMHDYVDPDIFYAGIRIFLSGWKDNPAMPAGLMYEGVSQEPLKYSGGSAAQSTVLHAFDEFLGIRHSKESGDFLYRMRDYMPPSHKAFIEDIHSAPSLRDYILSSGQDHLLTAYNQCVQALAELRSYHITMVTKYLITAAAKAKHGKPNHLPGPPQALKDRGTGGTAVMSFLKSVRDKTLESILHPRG

[6] = test concentration 0.001 μM, read-out: Activity (%) Rep. 1
[7] = test concentration 0.01 μM, read-out: Activity (%) Rep. 1
[8] = test concentration 0.1 μM, read-out: Activity (%) Rep. 1
[9] = read-out: Activity (%) Repeat 1
[10] = read-out: Activity (%) Repeat 2

Compound: N=C(NO)NCC[C@H](N)C(=O)O [nor-NOHA]
- Net absorbance Rep. 1 ([1]; test concentration 0.001 μM): 0.78
- Net absorbance Rep. 2 ([1]; test concentration 0.001 μM): 0.82
- inhibition at 0.001 µM ([1]; test concentration 0.001 μM, read-out: ARG-2 Inhibition (%)): 17%
- activity at 0.001 µM [1, 6]: 81%
- activity at 0.001 µM ([1]; test concentration 0.001 μM, read-out: Activity (%) Rep. 2): 84%
- Net absorbance Rep. 1 ([1]; test concentration 0.01 μM): 0.56
- Net absorbance Rep. 2 ([1]; test concentration 0.01 μM): 0.60
- inhibition at 0.01 µM ([1]; test concentration 0.01 μM, read-out: ARG-2 Inhibition (%)): 41%
- activity at 0.01 µM [1, 7]: 57%
- activity at 0.01 µM ([1]; test concentration 0.01 μM, read-out: Activity (%) Rep. 2): 62%
- Net absorbance Rep. 1 ([1]; test concentration 0.1 μM): 0.19
- Net absorbance Rep. 2 ([1]; test concentration 0.1 μM): 0.19
- inhibition at 0.1 µM ([1]; test concentration 0.1 μM, read-out: ARG-2 Inhibition (%)): 81%
- activity at 0.1 µM [1, 8]: 19%
- activity at 0.1 µM ([1]; test concentration 0.1 μM, read-out: Activity (%) Rep. 2): 19%
- Net absorbance Rep. 1 ([2]; test concentration 0.001 μM): 0.74
- Net absorbance Rep. 2 ([2]; test concentration 0.001 μM): 0.77
- inhibition at 0.001 µM ([2]; test concentration 0.001 μM, read-out: ARG-1 Inhibition (%)): 0%
- activity at 0.001 µM [2, 6]: 99%
- activity at 0.001 µM ([2]; test concentration 0.001 μM, read-out: Activity (%) Rep.2): 102%
- Net absorbance Rep. 1 ([2]; test concentration 0.01 μM): 0.59
- Net absorbance Rep. 2 ([2]; test concentration 0.01 μM): 0.59
- inhibition at 0.01 µM ([2]; test concentration 0.01 μM, read-out: ARG-1 Inhibition (%)): 22%
- activity at 0.01 µM [2, 7]: 79%
- activity at 0.01 µM ([2]; test concentration 0.01 μM, read-out: Activity (%) Rep.2): 78%
- Net absorbance Rep. 1 ([2]; test concentration 0.1 μM): 0.23
- Net absorbance Rep. 2 ([2]; test concentration 0.1 μM): 0.24
- inhibition at 0.1 µM ([2]; test concentration 0.1 μM, read-out: ARG-1 Inhibition (%)): 69%
- activity at 0.1 µM [2, 8]: 31%
- activity at 0.1 µM ([2]; test concentration 0.1 μM, read-out: Activity (%) Rep.2): 31%

Compound: SIRP-α
- Activity (%) Repeat 1 ([3]; 0.05 μM): 93%
- Activity (%) Repeat 2 ([3]; 0.05 μM): 97%
- Inhibition (%) ([3]; 0.05 μM): 5%
- Luminescence Repeat 1 ([3]; 0.05 μM): 35347
- Luminescence Repeat 2 ([3]; 0.05 μM): 36581
- Activity (%) Repeat 1 ([3]; 0.5 μM): 52%
- Activity (%) Repeat 2 ([3]; 0.5 μM): 51%
- Inhibition (%) ([3]; 0.5 μM): 49%
- Luminescence Repeat 1 ([3]; 0.5 μM): 19746
- Luminescence Repeat 2 ([3]; 0.5 μM): 19259
- Activity (%) Repeat 1 ([3]; 5 μM): 14%
- Activity (%) Repeat 2 ([3]; 5 μM): 18%
- Inhibition (%) ([3]; 5 μM): 84%
- Luminescence Repeat 1 ([3]; 5 μM): 5310
- Luminescence Repeat 2 ([3]; 5 μM): 6891

Compound: Cc1ccc(C(=O)Nc2ccc(S(=O)(=O)O)c3cc(S(=O)(=O)O)cc(S(=O)(=O)O)c23)cc1NC(=O)c1cccc(NC(=O)Nc2cccc(C(=O)Nc3cc(C(=O)Nc4ccc(S(=O)(=O)O)c5cc(S(=O)(=O)O)cc(S(=O)(=O)O)c45)ccc3C)c2)c1 [Suramin]
- inhibition at 0.1 µM [4]: 14%
- inhibition at 1 µM [4]: 74%
- activity at 0.1 µM ([4]; read-out: % Activity Repeat 1): 85%
- activity at 1 µM ([4]; read-out: % Activity Repeat 1): 26%
- activity at 0.1 µM ([4]; read-out: % Activity Repeat 2): 86%
- activity at 1 µM ([4]; read-out: % Activity Repeat 2): 26%
- SIRT1 Activity (Fluorescence count) Repeat 1 ([4]; test concentration 0.01 μM): 2415
- SIRT1 Activity (Fluorescence count) Repeat 2 ([4]; test concentration 0.01 μM): 2415
- inhibition at 0.01 µM ([4]; test concentration 0.01 μM): 0%
- activity at 0.01 µM ([4]; test concentration 0.01 μM, read-out: % Activity Repeat 1): 100%
- activity at 0.01 µM ([4]; test concentration 0.01 μM, read-out: % Activity Repeat 2): 100%
- SIRT1 Activity (Fluorescence count) Repeat 1 ([4]; test concentration 0.1 μM): 2074
- SIRT1 Activity (Fluorescence count) Repeat 2 ([4]; test concentration 0.1 μM): 2082
- SIRT1 Activity (Fluorescence count) Repeat 1 ([4]; test concentration 1 μM): 710
- SIRT1 Activity (Fluorescence count) Repeat 2 ([4]; test concentration 1 μM): 702

Compound: NS(=O)(=O)NCCNc1nonc1C(=NO)Nc1ccc(F)c(Br)c1 [INCB024360]
- inhibition at 0.01 µM [5]: 0%
- inhibition at 0.1 µM [5]: 20%
- inhibition at 1 µM [5]: 60%
- Absorbance (net) Repeat 1 ([5]; 0.01 μM): 0.17
- Absorbance (net) Repeat 2 ([5]; 0.01 μM): 0.17
- Absorbance (net) Repeat 1 ([5]; 0.1 μM): 0.14
- Absorbance (net) Repeat 2 ([5]; 0.1 μM): 0.15
- Absorbance (net) Repeat 1 ([5]; 1 μM): 0.10
- Absorbance (net) Repeat 2 ([5]; 1 μM): 0.11
- activity at 0.01 µM [5, 9]: 105%
- activity at 0.1 µM [5, 9]: 75%
- activity at 1 µM [5, 9]: 35%
- activity at 0.01 µM [5, 10]: 105%
- activity at 0.1 µM [5, 10]: 85%
- activity at 1 µM [5, 10]: 45%
